The values below are quoted from earlier work in PubChem BioAssay AID1259409 (Chemical Carcinogenesis Research Information System (CCRIS), 2018).

The structures appear in SMILES notation.

This series has as its system rodent chemically induced tumor inhibition, incidence and multiplicity. Description: CCRIS tumor inhibitor studies. The following applies: Dose [Inhibitor]: 0, Route [Inhibitor]: ORAL, Species: RAT, Strain/Sex: F344/MALE.

For `C=C[C@H](OC(C)=O)c1ccc(OC(C)=O)cc1`, the “tumour outcome (control, treated, inhibition, significance)” value (Carcinogen: 4-NITROQUINOLINE-1-OXIDE, 56-57-5, 100 PPM IN DIET FOR 10 WK BEGINNING 1 WK PRIOR TO CARCINOGEN TREATMENT (STUDY DURATION: 32 WK), Target Tissue: Type of Lesion: TONGUE: PAPILLOMA OR CARCINOMA, Dose [Carcinogen]: 20 PPM IN DRINKING WATER FOR 8 WK, Promoter: NONE USED) is 14/24 (58%), 0/20 (0%), 100%, p<0.001; the “tumour outcome (control, treated, inhibition, significance)” value (Carcinogen: 4-NITROQUINOLINE-1-OXIDE, 56-57-5, 100 PPM IN DIET FOR 22 WK BEGINNING 1 WK POST CARCINOGEN TREATMENT (STUDY DURATION: 32 WK), Target Tissue: Type of Lesion: TONGUE: PAPILLOMA OR CARCINOMA, Dose [Carcinogen]: 20 PPM IN DRINKING WATER FOR 8 WK, Promoter: NONE USED) is listed as 14/24 (58%), 0/20 (0%), 100%, p<0.001; the “tumour outcome (control, treated, inhibition, significance)” value (Carcinogen: 4-NITROQUINOLINE-1-OXIDE, 56-57-5, 500 PPM IN DIET FOR 10 WK BEGINNING 1 WK PRIOR TO CARCINOGEN TREATMENT (STUDY DURATION: 32 WK), Target Tissue: Type of Lesion: TONGUE: PAPILLOMA OR CARCINOMA, Dose [Carcinogen]: 20 PPM IN DRINKING WATER FOR 8 WK, Promoter: NONE USED) is reported as 14/24 (58%), 2/23 (9%), 84%, p<0.001; the “tumour outcome (control, treated, inhibition, significance)” value (Carcinogen: 4-NITROQUINOLINE-1-OXIDE, 56-57-5, 500 PPM IN DIET FOR 22 WK BEGINNING 1 WK POST CARCINOGEN TREATMENT (STUDY DURATION: 32 WK), Target Tissue: Type of Lesion: TONGUE: PAPILLOMA OR CARCINOMA, Dose [Carcinogen]: 20 PPM IN DRINKING WATER FOR 8 WK, Promoter: NONE USED) is reported as 14/24 (58%), 0/23 (0%), 100%, p<0.001; the “tumour outcome (control, treated, inhibition, significance)” value (Carcinogen: AZOXYMETHANE, 25843-45-2, 0.01% IN DIET FOR 4 WK BEGINNING 1 WK PRIOR TO CARCINOGEN TREATMENT (STUDY DURATION: 38 WK), Target Tissue: Type of Lesion: COLON: ADENOCARCINOMA, Dose [Carcinogen]: 15 MG/KG BW 1/WK FOR 3 WK, Promoter: NONE) is recorded as 70%, 33%, 53%, p<0.03; the “tumour outcome (control, treated, inhibition, significance)” value (Carcinogen: AZOXYMETHANE, 25843-45-2, 0.01% IN DIET FOR 34 WK BEGINNING 1 WK POST LAST CARCINOGEN DOSE (STUDY DURATION: 38 WK), Target Tissue: Type of Lesion: COLON: ADENOCARCINOMA, Dose [Carcinogen]: 15 MG/KG BW 1/WK FOR 3 WK, Promoter: NONE) is on record as 70%, 38%, 46%, not significant. Also, the “tumour outcome (control, treated, inhibition, significance)” value is listed as 70%, 17%, 76%, p<0.001 (Carcinogen: AZOXYMETHANE, 25843-45-2, 0.02% IN DIET FOR 4 WK BEGINNING 1 WK PRIOR TO CARCINOGEN TREATMENT (STUDY DURATION: 38 WK), Target Tissue: Type of Lesion: COLON: ADENOCARCINOMA, Dose [Carcinogen]: 15 MG/KG BW 1/WK FOR 3 WK, Promoter: NONE); 70%, 6%, 91%, p<0.00003 (Carcinogen: AZOXYMETHANE, 25843-45-2, 0.02% IN DIET FOR 34 WK BEGINNING 1 WK POST LAST CARCINOGEN DOSE (STUDY DURATION: 38 WK), Target Tissue: Type of Lesion: COLON: ADENOCARCINOMA, Dose [Carcinogen]: 15 MG/KG BW 1/WK FOR 3 WK, Promoter: NONE); 12/17 (71%), 7/18 (39%), 45%, not significant (Carcinogen: AZOXYMETHANE, 25843-45-2, 100 PPM IN DIET FOR 4 WK BEGINNING 1 WK PRIOR TO CARCINOGEN TREATMENT (STUDY DURATION: 38 WK), Target Tissue: Type of Lesion: LARGE INTESTINE: TUMOR, Dose [Carcinogen]: 15 MG/KG BW 1/WK FOR 3 WK, Promoter: NONE USED); 5/17 (29%), 3/18 (17%), 41%, not significant (Carcinogen: AZOXYMETHANE, 25843-45-2, 100 PPM IN DIET FOR 4 WK BEGINNING 1 WK PRIOR TO CARCINOGEN TREATMENT (STUDY DURATION: 38 WK), Target Tissue: Type of Lesion: SMALL INTESTINE: TUMOR, Dose [Carcinogen]: 15 MG/KG BW 1/WK FOR 3 WK, Promoter: NONE USED); 12/17 (71%), 9/18 (50%), 30%, not significant (Carcinogen: AZOXYMETHANE, 25843-45-2, 100 PPM IN DIET FOR 34 WK BEGINNING 1 WK POST CARCINOGEN TREATMENT (STUDY DURATION: 38 WK), Target Tissue: Type of Lesion: LARGE INTESTINE: TUMOR, Dose [Carcinogen]: 15 MG/KG BW 1/WK FOR 3 WK, Promoter: NONE USED); 5/17 (29%), 4/18 (22%), 24%, not significant (Carcinogen: AZOXYMETHANE, 25843-45-2, 100 PPM IN DIET FOR 34 WK BEGINNING 1 WK POST CARCINOGEN TREATMENT (STUDY DURATION: 38 WK), Target Tissue: Type of Lesion: SMALL INTESTINE: TUMOR, Dose [Carcinogen]: 15 MG/KG BW 1/WK FOR 3 WK, Promoter: NONE USED). The “tumour outcome (control, treated, inhibition, significance)” value (Carcinogen: AZOXYMETHANE, 25843-45-2, 500 PPM IN DIET FOR 4 WK BEGINNING 1 WK PRIOR TO CARCINOGEN TREATMENT (STUDY DURATION: 38 WK), Target Tissue: Type of Lesion: LARGE INTESTINE: TUMOR, Dose [Carcinogen]: 15 MG/KG BW 1/WK FOR 3 WK, Promoter: NONE USED) was 12/17 (71%), 8/19 (42%), 41%, not significant; the “tumour outcome (control, treated, inhibition, significance)” value (Carcinogen: AZOXYMETHANE, 25843-45-2, 500 PPM IN DIET FOR 4 WK BEGINNING 1 WK PRIOR TO CARCINOGEN TREATMENT (STUDY DURATION: 38 WK), Target Tissue: Type of Lesion: SMALL INTESTINE: TUMOR, Dose [Carcinogen]: 15 MG/KG BW 1/WK FOR 3 WK, Promoter: NONE USED) is recorded as 5/17 (29%), 5/19 (26%), 10%, not significant; the “tumour outcome (control, treated, inhibition, significance)” value (Carcinogen: AZOXYMETHANE, 25843-45-2, 500 PPM IN DIET FOR 34 WK BEGINNING 1 WK POST CARCINOGEN TREATMENT (STUDY DURATION: 38 WK), Target Tissue: Type of Lesion: LARGE INTESTINE: TUMOR, Dose [Carcinogen]: 15 MG/KG BW 1/WK FOR 3 WK, Promoter: NONE USED) is recorded as 12/17 (71%), 4/20 (20%), 72%, p=0.002; the “tumour outcome (control, treated, inhibition, significance)” value (Carcinogen: AZOXYMETHANE, 25843-45-2, 500 PPM IN DIET FOR 34 WK BEGINNING 1 WK POST CARCINOGEN TREATMENT (STUDY DURATION: 38 WK), Target Tissue: Type of Lesion: SMALL INTESTINE: TUMOR, Dose [Carcinogen]: 15 MG/KG BW 1/WK FOR 3 WK, Promoter: NONE USED) was 5/17 (29%), 2/20 (10%), 66%, not significant.
